Reference: US20050009924A1 (priority 2003, published 2005)

Columns and labels:
human hepatoma G2 cells = test: Cytotoxicity assay (XTT colorimetric), Hep G2; type: cell-based; details: 48 h of drug exposure
rat glioma C6 cells = test: Cytotoxicity assay (XTT colorimetric), C6 cells; type: cell-based; details: 48 h of drug exposure
[1] = test system: hepatitis B virus transfected hepatoma cell lines, HepG 2.2.15 cells; test: Cytotoxicity assay, 2.2.15 cells; type: cell-based, human; details: 48 h of drug exposure
[2] = test system: transcriptional activity of hTERT; test: SEAP reporter assay of hTERT expression, PhTERT-SEAP (hTERT-BJ1); type: cell-based, human; details: PhTERT-SEAP (hTERT-BJ1)
Experimental: (§1) Secreted alkaine phosphatase was used as the reporter system to monitor the transcriptional activity of hTERT. Here, about […] each were grown in 96-well plates and incubated at 37° C. for 24 h and changed with fresh media. Varying amounts of drugs were added and cells were incubated for another 24 h. Culture media were collected and heated at 65° C. for 10 min to inactivate heat-labile phosphatases. An equal amount of SEAP buffer (2 M diethanolamine, 1 mM MgCl2, and 20 mM […]) was added to the media and p-nitrophenyl phosphate was added to a final concentration of 12 mM. Absorptions at 405 nm were taken, and the rate of absorption increase is determined.
(§2) Culture media were changed every 3 days. […] The stable clones were selected using G418.

[3] = test system: transcriptional activity of hTERT; test: SEAP reporter assay of hTERT expression, PhTERT-SEAP (H1299); type: cell-based, human; details: PhTERT-SEAP(hTERT-H1299)
Experimental: as §1, §2

[4] = test system: non-small-cell lung cancer cells H1299; test: MTT relative viability, PhTERT-SEAP (H1299) cells; details: PhTERT-SEAP(hTERT-H1299)
hTERT-BJ1 cells = test: MTT relative viability, PhTERT-SEAP (hTERT-BJ1) cells; details: PhTERT-SEAP (hTERT-BJ1)
[5] = MTT relative viability, PhTERT-SEAP (H1299) cells; details: human
[6] = MTT relative viability, PhTERT-SEAP (hTERT-BJ1) cells; details: human, hTERT-BJ1 cells, stable PhTERT-SEAP reporter clone

1,4-Bis(2,5-trifluorobenzoylamido)-9,10-anthracenedione [VI29]
IC50 (human hepatoma G2 cells): > 20 µM
IC50 (rat glioma C6 cells): 2.82 µM
IC50 [1]: 2.2 µM
Relative SEAP activity (%) ([2]; 1.3 μM): 16 ± 31.8%
SEAP/vibility ([2]; 1.3 μM): 0.15
Relative SEAP activity (%) ([2]; 13 μM): 24 ± 21.5%
SEAP/vibility ([2]; 13 μM): 0.28
Relative SEAP activity (%) ([2]; 139 μM): 26 ± 36.9%
SEAP/vibility ([2]; 139 μM): 0.47
Relative SEAP activity (%) ([3]; 1.3 μM): 106 ± 6.7%
SEAP/vibility ([3]; 1.3 μM): 1.07
Relative SEAP activity (%) ([3]; 13 μM): 105 ± 7.9%
SEAP/vibility ([3]; 13 μM): 1.32
Relative SEAP activity (%) ([3]; 139 μM): 94 ± 10.2%
SEAP/vibility ([3]; 139 μM): 2.56
Relative MTT viability (%) ([4]; 1.3 μM): 99 ± 8.6%
Relative MTT viability (%) ([4]; 13 μM): 79 ± 10.3%
Relative MTT viability (%) ([4]; 139 μM): 37 ± 8.8%
Relative MTT viability (%) (hTERT-BJ1 cells; 1.3 μM): 107 ± 6.4%
Relative MTT viability (%) (hTERT-BJ1 cells; 13 μM): 85 ± 4.8%
Relative MTT viability (%) (hTERT-BJ1 cells; 139 μM): 56 ± 4.6%

1,4-Bis[3-(aminomethyl)cyclopropanepropionamido]-9,10-anthracenedione [VI37]
IC50 (human hepatoma G2 cells): 0.32 µM
IC50 (rat glioma C6 cells): 0.4 µM
IC50 [1]: 1.71 µM
Relative SEAP activity (%) ([2]; 2.0 μM): 97 ± 13.8%
SEAP/vibility ([2]; 2.0 μM): 1.02
Relative SEAP activity (%) ([2]; 20 μM): 124 ± 22.8%
SEAP/vibility ([2]; 20 μM): 1.48
Relative SEAP activity (%) ([2]; 204 μM): 105 ± 17.7%
SEAP/vibility ([2]; 204 μM): 3.01
Relative SEAP activity (%) ([3]; 2.0 μM): 95 ± 4.2%
SEAP/vibility ([3]; 2.0 μM): 0.88
Relative SEAP activity (%) ([3]; 20 μM): 91 ± 8.9%
SEAP/vibility ([3]; 20 μM): 1.09
Relative SEAP activity (%) ([3]; 204 μM): 52 ± 4.4%
SEAP/vibility ([3]; 204 μM): 0.77
Relative MTT viability (%) ([4]; 2.0 μM): 108 ± 7.8%
Relative MTT viability (%) ([4]; 20 μM): 83 ± 1.6%
Relative MTT viability (%) ([4]; 204 μM): 67 ± 9.8%
Relative MTT viability (%) (hTERT-BJ1 cells; 2.0 μM): 95 ± 2.5%
Relative MTT viability (%) (hTERT-BJ1 cells; 20 μM): 84 ± 1.5%
Relative MTT viability (%) (hTERT-BJ1 cells; 204 μM): 35 ± 3.7%

O=C(Nc1ccc(NC(=O)c2ccccc2Cl)c2c1C(=O)c1ccccc1C2=O)c1ccccc1Cl [VI2, 1,4-Bis(2-chlorobenzoylamido)-9,10-anthracenedione]
IC50 (human hepatoma G2 cells): > 20 µM
IC50 (rat glioma C6 cells): > 20 µM
IC50 [1]: > 20 µM
Relative SEAP activity (%) ([2]; 1.9 μM): 110 ± 20.1%
SEAP/vibility ([2]; 1.9 μM): 0.95
Relative SEAP activity (%) ([2]; 19 μM): 96 ± 33.4%
SEAP/vibility ([2]; 19 μM): 0.88
Relative SEAP activity (%) ([2]; 194 μM): 95 ± 36.6%
SEAP/vibility ([2]; 194 μM): 1.00
Relative SEAP activity (%) ([3]; 1.9 μM): 108 ± 10.5%
SEAP/vibility ([3]; 1.9 μM): 0.94
Relative SEAP activity (%) ([3]; 19 μM): 105 ± 7.7%
SEAP/vibility ([3]; 19 μM): 1.47
Relative SEAP activity (%) ([3]; 194 μM): 100 ± 8.9%
SEAP/vibility ([3]; 194 μM): 1.68
Relative MTT viability (%) ([4]; 1.9 μM): 114 ± 5.4%
Relative MTT viability (%) ([4]; 19 μM): 72 ± 3.6%
Relative MTT viability (%) ([4]; 194 μM): 60 ± 7.9%
Relative MTT viability (%) (hTERT-BJ1 cells; 1.9 μM): 116 ± 7.7%
Relative MTT viability (%) (hTERT-BJ1 cells; 19 μM): 109 ± 2.2%
Relative MTT viability (%) (hTERT-BJ1 cells; 194 μM): 95 ± 2.0%

O=C(Nc1ccc(NC(=O)c2ccccc2)c2c1C(=O)c1ccccc1C2=O)c1ccccc1 [VI4, 1,4-Bisbenzoylamido-9,10-anthracenedione]
IC50 (human hepatoma G2 cells): > 20 µM
IC50 (rat glioma C6 cells): > 20 µM
IC50 [1]: > 20 µM
Relative SEAP activity (%) ([2]; 2.2 μM): (−4) ± 25.7^ %
SEAP/vibility ([2]; 2.2 μM): −0.04
Relative SEAP activity (%) ([2]; 22 μM): (−10) ± 26.8 ^ %
SEAP/vibility ([2]; 22 μM): −0.14
Relative SEAP activity (%) ([2]; 224 μM): (−41) ± 26.8 ^ %
SEAP/vibility ([2]; 224 μM): −1.10
Relative SEAP activity (%) ([3]; 2.2 μM): 81 ± 3.3%
SEAP/vibility ([3]; 2.2 μM): 0.74
Relative SEAP activity (%) ([3]; 22 μM): 84 ± 2.6%
SEAP/vibility ([3]; 22 μM): 0.96
Relative SEAP activity (%) ([3]; 224 μM): 80 ± 2.7%
SEAP/vibility ([3]; 224 μM): 2.99
Relative MTT viability (%) ([4]; 2.2 μM): 109 ± 6.0%
Relative MTT viability (%) ([4]; 22 μM): 88 ± 6.2%
Relative MTT viability (%) ([4]; 224 μM): 27 ± 1.8%
Relative MTT viability (%) (hTERT-BJ1 cells; 2.2 μM): 95 ± 4.9%
Relative MTT viability (%) (hTERT-BJ1 cells; 22 μM): 69 ± 3.2%
Relative MTT viability (%) (hTERT-BJ1 cells; 224 μM): 38 ± 2.6%

O=C(Nc1ccc(NC(=O)c2cccc(Cl)c2)c2c1C(=O)c1ccccc1C2=O)c1cccc(Cl)c1 [VI5, 1,4-Bis(3-chlorobenzoylamido)-9,10-anthracenedione]
IC50 (human hepatoma G2 cells): > 20 µM
IC50 (rat glioma C6 cells): > 20 µM
IC50 [1]: > 20 µM
Relative SEAP activity (%) ([2]; 1.9 μM): 98 ± 10.1%
SEAP/vibility ([2]; 1.9 μM): 0.99
Relative SEAP activity (%) ([2]; 19 μM): 105 ± 8.8%
SEAP/vibility ([2]; 19 μM): 1.17
Relative SEAP activity (%) ([2]; 194 μM): 89 ± 10.1%
SEAP/vibility ([2]; 194 μM): 1.48
Relative SEAP activity (%) ([3]; 1.9 μM): 110 ± 4.9%
SEAP/vibility ([3]; 1.9 μM): 1.17
Relative SEAP activity (%) ([3]; 19 μM): 112 ± 6.1%
SEAP/vibility ([3]; 19 μM): 1.10
Relative SEAP activity (%) ([3]; 194 μM): 91 ± 3.0%
SEAP/vibility ([3]; 194 μM): 1.55
Relative MTT viability (%) ([4]; 1.9 μM): 95 ± 11.3%
Relative MTT viability (%) ([4]; 19 μM): 102 ± 8.5%
Relative MTT viability (%) ([4]; 194 μM): 59 ± 4.3%
Relative MTT viability (%) (hTERT-BJ1 cells; 1.9 μM): 99 ± 9.8%
Relative MTT viability (%) (hTERT-BJ1 cells; 19 μM): 90 ± 1.9%
Relative MTT viability (%) (hTERT-BJ1 cells; 194 μM): 60 ± 2.0%

Cc1cccc(C(=O)Nc2ccc(NC(=O)c3cccc(C)c3)c3c2C(=O)c2ccccc2C3=O)c1 [VI6, 1,4-Bis(3-methylbenzoylamido)-9,10-anthracenedione]
IC50 (human hepatoma G2 cells): > 20 µM
IC50 (rat glioma C6 cells): > 20 µM
IC50 [1]: > 20 µM
Relative SEAP activity (%) ([2]; 2.1 μM): 97 ± 17.1%
SEAP/vibility ([2]; 2.1 μM): 0.88
Relative SEAP activity (%) ([2]; 21 μM): 78 ± 7.1%
SEAP/vibility ([2]; 21 μM): 0.71
Relative SEAP activity (%) ([2]; 210 μM): 70 ± 5.8%
SEAP/vibility ([2]; 210 μM): 0.69
Relative SEAP activity (%) ([3]; 2.1 μM): 107 ± 4.6%
SEAP/vibility ([3]; 2.1 μM): 1.06
Relative SEAP activity (%) ([3]; 21 μM): 104 ± 4.0%
SEAP/vibility ([3]; 21 μM): 1.08
Relative SEAP activity (%) ([3]; 210 μM): 99 ± 9.1%
SEAP/vibility ([3]; 210 μM): 1.20
Relative MTT viability (%) ([4]; 2.1 μM): 101 ± 5.6%
Relative MTT viability (%) ([4]; 21 μM): 97 ± 6.2%
Relative MTT viability (%) ([4]; 210 μM): 83 ± 7.8%
Relative MTT viability (%) (hTERT-BJ1 cells; 2.1 μM): 110 ± 2.6%
Relative MTT viability (%) (hTERT-BJ1 cells; 21 μM): 109 ± 4.6%
Relative MTT viability (%) (hTERT-BJ1 cells; 210 μM): 101 ± 6.0%

CCN(CC)CCC(=O)Nc1ccc(NC(=O)CCN(CC)CC)c2c1C(=O)c1ccccc1C2=O [VI34, 1,4-Bis[3-(diethylamino)propionamido]-9,10-anthracenedione]
IC50 (human hepatoma G2 cells; Homo sapiens, HepG2): 0.49 µM
IC50 (rat glioma C6 cells; Rattus norvegicus, C6): 0.9 µM
IC50 ([1]; Homo sapiens, HepG2.2.15): 0.28 µM
SEAP/vibility ([2]; 2.0 μM): 0.03
SEAP/vibility ([2]; 20 μM): −0.13
SEAP/vibility ([2]; 203 μM): −0.37
activity at 2 µM ([2]; Homo sapiens, 2.0 μM, read-out: Relative SEAP activity (%)): 2 ± 11.1%
activity at 20 µM ([2]; Homo sapiens, 20 μM, read-out: Relative SEAP activity (%)): -2%
activity at 203 µM ([2]; Homo sapiens, 203 μM, read-out: Relative SEAP activity (%)): -2%
SEAP/vibility ([3]; 2.0 μM): 0.79
SEAP/vibility ([3]; 20 μM): 4.63
SEAP/vibility ([3]; 203 μM): 44.24
activity at 2 µM ([3]; Homo sapiens, NCI-H1299, 2.0 μM, read-out: Relative SEAP activity (%)): 73 ± 2.7%
activity at 20 µM ([3]; Homo sapiens, NCI-H1299, 20 μM, read-out: Relative SEAP activity (%)): 53 ± 2.7%
activity at 203 µM ([3]; Homo sapiens, NCI-H1299, 203 μM, read-out: Relative SEAP activity (%)): 39 ± 0.8%
viability at 48 h, 2 µM [5]: 92 ± 6.1%
viability at 48 h, 20 µM [5]: 11 ± 2.5%
viability at 48 h, 203 µM [5]: 1 ± 2.4%
viability at 48 h, 2 µM [6]: 83 ± 9.2%
viability at 48 h, 20 µM [6]: 15 ± 3.9%
viability at 48 h, 203 µM [6]: 6 ± 3.9%
